US20250320193A1, “OXOISOINDOLINYL SUBSTITUTED PIPERIDINEDIONE DERIVATIVE AND USE THEREOF” (GLUETACS THERAPEUTICS (SHANGHAI) CO., LTD., priority 2022, published 2025)

Legend:
[1] = test system: CCRF-CEM (human acute lymphoblastic leukemia T-cells); assay: Tumor cell proliferation inhibition, CCK-8; assay type: cell-based; conditions: CCRF-CEM cells, CCK-8, read-out: inhibitory activity (IC50, nM) CCRF-CEM
Method in brief: (§1)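 STR-authenticated, mycoplasma-free cells cultured at 37° C with 5% CO2. Compound added 24 h post-seeding, 10 μM top, 5-fold × 10. Viability by CCK-8; IC50 from inhibition curve.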

[2] = test system: MM.1S cells (human multiple myeloma cells); assay: Tumor cell proliferation inhibition, CCK-8; assay type: cell-based; conditions: MM1.S, MM.1S cells, CCK-8, read-out: inhibitory activity (IC50, nM) MM.1S
Method in brief: as §1

[3] = test system: MDA-MB-231 cells (human breast adenocarcinoma cells); assay: Tumor cell proliferation inhibition, CCK-8; assay type: cell-based; conditions: MDA-MB-231 cells, CCK-8, read-out: inhibitory activity (IC50, nM) MDA-MB-231
Method in brief: as §1

[4] = test system: Kasumi-1 (human acute myeloid leukemia cells); assay: Tumor cell proliferation inhibition, CCK-8; assay type: cell-based; conditions: Kasumi-1 cells, CCK-8, read-out: inhibitory activity (IC50, nM) Kasumi-1
Method in brief: as §1

[5] = target: human Cereblon WT GST-tagged protein (Homo sapiens (Human), UniProt Q96SW2); assay: CRBN-binding affinity, HTRF (CEREBLON BINDING kit, CISBIO); conditions: HTRF inhibitory activity
Method in brief: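 Compounds were mixed with GST-tagged human Cereblon WT protein, then with Thalidomide-Red tracer and GST Eu antibody, and binding was read by HTRF. Inhibition rate was calculated from 620 nm emission relative to blank control wells (no protein) and solvent control wells.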

GSPT1 = GSPT1 (Homo sapiens (Human), UniProt P15170+Q96SW2); assay: Western blot, substrate protein expression in hPBMC: GSPT1; assay type: cell-based; conditions: hPBMC, compound 500 nM, 24 hours, Western blot
Method in brief: (§2)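 hPBMC, 1×10^6 cells/mL, 24 h compound exposure; RIPA lysis, BCA protein assay, SDS-PAGE, NC membrane immunoblot. Densitometry vs internal control → % protein remaining; degradation % = 100% − remaining; DC50 = conc. at 50% of DMSO band signal.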

[6] = test system: MM.1R cells (dexamethasone-resistant human multiple myeloma cells); assay: Tumor cell proliferation inhibition, CCK-8; assay type: cell-based; conditions: MM.1R cells, CCK-8, read-out: inhibitory activity (IC50, nM) MM.1R
Method in brief: as §1

IKZF1 = IKZF1 (Homo sapiens (Human), UniProt Q13422+Q96SW2); assay: Western blot, substrate protein expression in hPBMC: IKZF1; assay type: cell-based; conditions: hPBMC, compound 500 nM, 24 hours, Western blot
Method in brief: as §2

IKZF3 = IKZF3 (Homo sapiens (Human), UniProt Q96SW2+Q9UKT9); assay: Western blot, substrate protein expression in hPBMC: IKZF3; assay type: cell-based; conditions: hPBMC, compound 500 nM, 24 hours, Western blot
Method in brief: as §2

[7] = test system: CAL-62 (human thyroid carcinoma cells); assay: Tumor cell proliferation inhibition, CCK-8; assay type: cell-based; conditions: CAL-62 cells, CCK-8, read-out: inhibitory activity (IC50, nM) CAL-62
Method in brief: as §1

[8] = test system: H146 cells (human small cell lung carcinoma cells); assay: Tumor cell proliferation inhibition, CCK-8; assay type: cell-based; conditions: NCI-H146, H146 cells, CCK-8, read-out: inhibitory activity (IC50, nM) H146
Method in brief: as §1

[9] = test system: Jurkat cells (human T-cell leukemia cells); assay: Tumor cell proliferation inhibition, CCK-8; assay type: cell-based; conditions: Jurkat cells, CCK-8, read-out: inhibitory activity (IC50, nM) Jurkat
Method in brief: as §1

[10] = test system: TMD8 cells (human diffuse large B-cell lymphoma cells); assay: Tumor cell proliferation inhibition, CCK-8; assay type: cell-based; conditions: TMD8 cells, CCK-8, read-out: inhibitory activity (IC50, nM) TMD8
Method in brief: as §1

Sequence of GSPT1 (P15170 whole entry): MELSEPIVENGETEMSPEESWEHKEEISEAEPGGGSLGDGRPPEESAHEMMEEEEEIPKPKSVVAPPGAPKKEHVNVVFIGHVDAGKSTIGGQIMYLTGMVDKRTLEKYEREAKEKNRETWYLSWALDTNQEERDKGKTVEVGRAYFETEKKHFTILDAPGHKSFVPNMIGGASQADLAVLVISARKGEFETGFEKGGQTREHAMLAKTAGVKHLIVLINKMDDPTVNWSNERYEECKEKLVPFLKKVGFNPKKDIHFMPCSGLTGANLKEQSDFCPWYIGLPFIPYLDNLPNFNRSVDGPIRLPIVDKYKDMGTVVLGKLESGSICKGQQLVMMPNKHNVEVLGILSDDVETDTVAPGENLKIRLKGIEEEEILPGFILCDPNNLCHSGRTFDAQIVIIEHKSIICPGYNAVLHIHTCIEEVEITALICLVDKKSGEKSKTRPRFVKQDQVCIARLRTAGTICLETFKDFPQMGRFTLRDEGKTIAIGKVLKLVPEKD
Sequence of GSPT1 (Q96SW2 whole entry): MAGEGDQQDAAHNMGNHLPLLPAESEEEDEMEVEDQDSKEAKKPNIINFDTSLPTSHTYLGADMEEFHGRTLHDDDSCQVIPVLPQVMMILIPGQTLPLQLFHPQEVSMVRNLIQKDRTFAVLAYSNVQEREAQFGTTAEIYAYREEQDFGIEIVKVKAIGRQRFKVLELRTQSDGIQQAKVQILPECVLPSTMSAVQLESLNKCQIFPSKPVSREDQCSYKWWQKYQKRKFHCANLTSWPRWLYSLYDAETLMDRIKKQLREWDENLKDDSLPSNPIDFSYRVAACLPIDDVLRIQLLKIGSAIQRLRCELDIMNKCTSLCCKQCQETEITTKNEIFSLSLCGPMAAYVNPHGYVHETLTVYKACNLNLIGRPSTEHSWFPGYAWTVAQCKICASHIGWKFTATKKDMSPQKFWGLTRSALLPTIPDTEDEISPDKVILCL
Sequence of GSPT1 (Q16531 whole entry partner): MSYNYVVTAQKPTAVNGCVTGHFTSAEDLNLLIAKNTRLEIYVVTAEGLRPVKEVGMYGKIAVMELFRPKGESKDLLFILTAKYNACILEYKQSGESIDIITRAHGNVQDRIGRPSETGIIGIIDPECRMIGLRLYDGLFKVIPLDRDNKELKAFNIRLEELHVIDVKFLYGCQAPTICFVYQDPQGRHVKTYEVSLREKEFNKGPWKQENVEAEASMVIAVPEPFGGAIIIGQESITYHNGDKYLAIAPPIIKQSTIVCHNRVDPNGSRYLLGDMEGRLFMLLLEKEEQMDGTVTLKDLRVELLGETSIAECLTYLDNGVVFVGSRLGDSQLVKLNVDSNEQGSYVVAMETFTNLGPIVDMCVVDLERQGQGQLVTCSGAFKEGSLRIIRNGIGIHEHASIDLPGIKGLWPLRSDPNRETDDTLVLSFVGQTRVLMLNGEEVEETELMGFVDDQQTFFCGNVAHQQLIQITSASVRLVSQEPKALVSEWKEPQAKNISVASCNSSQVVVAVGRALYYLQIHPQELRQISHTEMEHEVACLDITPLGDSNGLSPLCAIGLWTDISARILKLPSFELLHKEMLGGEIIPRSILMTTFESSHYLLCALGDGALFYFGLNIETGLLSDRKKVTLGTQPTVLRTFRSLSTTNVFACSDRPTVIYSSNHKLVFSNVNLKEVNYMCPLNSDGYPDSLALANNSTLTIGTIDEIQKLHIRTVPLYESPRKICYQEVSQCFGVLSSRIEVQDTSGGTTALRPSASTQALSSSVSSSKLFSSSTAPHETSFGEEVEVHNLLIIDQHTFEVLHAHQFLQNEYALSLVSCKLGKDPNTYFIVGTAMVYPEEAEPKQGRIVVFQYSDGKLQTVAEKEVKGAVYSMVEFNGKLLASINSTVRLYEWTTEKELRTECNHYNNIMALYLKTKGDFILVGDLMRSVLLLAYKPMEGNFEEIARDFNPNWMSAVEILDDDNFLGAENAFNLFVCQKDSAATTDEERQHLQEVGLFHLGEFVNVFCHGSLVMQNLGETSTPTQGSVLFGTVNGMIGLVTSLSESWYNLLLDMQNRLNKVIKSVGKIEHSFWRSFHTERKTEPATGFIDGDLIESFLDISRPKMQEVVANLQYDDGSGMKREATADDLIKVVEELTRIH
Sequence of IKZF1 (Q13422 whole entry): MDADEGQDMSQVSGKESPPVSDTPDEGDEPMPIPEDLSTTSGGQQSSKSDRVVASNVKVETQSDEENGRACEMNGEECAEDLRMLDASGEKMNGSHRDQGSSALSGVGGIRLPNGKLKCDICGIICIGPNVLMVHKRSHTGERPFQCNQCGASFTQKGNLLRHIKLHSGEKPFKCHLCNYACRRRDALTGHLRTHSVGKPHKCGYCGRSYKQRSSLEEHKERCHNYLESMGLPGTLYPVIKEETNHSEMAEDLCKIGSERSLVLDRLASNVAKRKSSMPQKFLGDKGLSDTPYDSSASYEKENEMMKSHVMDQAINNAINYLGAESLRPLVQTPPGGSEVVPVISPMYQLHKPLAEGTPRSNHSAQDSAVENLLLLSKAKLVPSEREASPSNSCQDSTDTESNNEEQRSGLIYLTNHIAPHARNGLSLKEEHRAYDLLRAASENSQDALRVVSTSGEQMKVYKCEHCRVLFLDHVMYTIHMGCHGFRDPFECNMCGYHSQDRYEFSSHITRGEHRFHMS
Sequence of IKZF1 (Q96SW2 whole entry): as the sequence (Q96SW2 whole entry) above
Sequence of IKZF1 (Q16531 whole entry partner): as the sequence (Q16531 whole entry partner) above
Sequence of human Cereblon WT GST-tagged protein (Q96SW2 whole entry): as the sequence (Q96SW2 whole entry) above
Sequence of IKZF3 (Q9UKT9 whole entry): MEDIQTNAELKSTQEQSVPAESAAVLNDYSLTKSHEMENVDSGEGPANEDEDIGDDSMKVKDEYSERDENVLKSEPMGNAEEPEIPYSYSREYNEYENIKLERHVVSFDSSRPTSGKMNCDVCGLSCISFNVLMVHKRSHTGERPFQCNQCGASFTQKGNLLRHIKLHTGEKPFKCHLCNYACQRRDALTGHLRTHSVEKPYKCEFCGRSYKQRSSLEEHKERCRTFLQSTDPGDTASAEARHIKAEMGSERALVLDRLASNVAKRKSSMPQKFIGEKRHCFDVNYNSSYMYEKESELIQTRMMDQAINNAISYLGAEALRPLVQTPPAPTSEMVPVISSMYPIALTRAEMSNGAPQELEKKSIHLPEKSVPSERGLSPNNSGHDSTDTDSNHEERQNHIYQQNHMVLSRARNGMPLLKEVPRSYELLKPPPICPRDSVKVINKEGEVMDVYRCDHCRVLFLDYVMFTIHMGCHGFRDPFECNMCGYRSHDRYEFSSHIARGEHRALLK
Sequence of IKZF3 (Q96SW2 whole entry): as the sequence (Q96SW2 whole entry) above
Sequence of IKZF3 (Q16531 whole entry partner): as the sequence (Q16531 whole entry partner) above

Structure (SMILES)	IC50 [1]	IC50 [2]	IC50 [3]	IC50 [4]	IC50 [5]	substrate protein remaining % GSPT1 (GSPT1)	IC50 [6]	substrate protein remaining % IKZF1 (IKZF1)	substrate protein remaining % IKZF3 (IKZF3)	IC50 [7]	IC50 [8]	IC50 [9]	IC50 [10]
O=C1CCC(N2Cc3cc(CN4CCN(C(c5ccccc5)c5ccccc5)CC4)cc(F)c3C2=O)C(=O)N1 (stereo not drawn) [GT-03467, 3-(5-((4-benzhydrylpiperazin-1-yl)methyl)-7-fluoro-1-oxoisoindolin-2-yl)piperidine-2,6-dione]	10 to 50 nM	100 to 500 nM	100 to 500 nM	50 to 100 nM	500 to 1000 nM	–	–	–	–	–	–	–	–
O=C1CCC(N2Cc3cc(CN4CCN(C(c5ccc(Cl)cc5)c5ccc(Cl)cc5)CC4)ccc3C2=O)C(=O)N1 (stereo not drawn) [GT-03566, 3-(5-((4-(bis(4-chlorophenyl)methyl)piperazin-1-yl)methyl)-1-oxoisoindolin-2-yl)piperidine-2,6-dione]	10 to 50 nM	500 to 1000 nM	–	–	1000 to 1900 nM	A (A represents 0% ≤ substrate protein remaining % ≤ 50%)	100 to 500 nM	A (A represents 0% ≤ substrate protein remaining % ≤ 50%)	A (A represents 0% ≤ substrate protein remaining % ≤ 50%)	–	–	–	–
O=C1CCC(N2Cc3cc(CN4CCN(C(c5ccc(Cl)cc5)c5ccc(Cl)cc5)CC4)c(F)cc3C2=O)C(=O)N1 (stereo not drawn) [GT-03699, 3-(5-((4-(bis(4-chlorophenyl)methyl)piperazin-1-yl)methyl)-6-fluoro-1-oxoisoindolin-2-yl)piperidine-2,6-dione]	10 to 50 nM	50 to 100 nM	–	–	–	A (A represents 0% ≤ substrate protein remaining % ≤ 50%)	50 to 100 nM	B (B represents substrate protein remaining % > 50%)	A (A represents 0% ≤ substrate protein remaining % ≤ 50%)	50 to 100 nM	–	–	–
O=C1CCC(N2Cc3cc(CN4CCN(C(c5cccc(F)c5)c5cccc(F)c5)CC4)cc(F)c3C2=O)C(=O)N1 (stereo not drawn) [GT-03704, 3-(5-((4-(bis(3-fluorophenyl)methyl)piperazin-1-yl)methyl)-7-fluoro-1-oxoisoindolin-2-yl)piperidine-2,6-dione]	1 to 10 nM	10 to 50 nM	50 to 100 nM	50 to 100 nM	< 500 nM	A (A represents 0% ≤ substrate protein remaining % ≤ 50%)	10 to 50 nM	B (B represents substrate protein remaining % > 50%)	A (A represents 0% ≤ substrate protein remaining % ≤ 50%)	10 to 50 nM	100 to 500 nM	100 to 500 nM	–
O=C1CCC(N2Cc3c(ccc(CN4C[C@@H]5C[C@H]4CN5C(c4ccccc4)c4ccccc4)c3F)C2=O)C(=O)N1 (stereo partly drawn) [GT-03724, 3-(5-(((1S,4S)-5-benzhydryl-2,5-diazabicyclo[2.2.1]heptan-2-yl)methyl)-4-fluoro-1-oxoisoindolin-2-yl)piperidine-2,6-dione]	10 to 50 nM	10 to 50 nM	–	–	< 500 nM	A (A represents 0% ≤ substrate protein remaining % ≤ 50%)	10 to 50 nM	A (A represents 0% ≤ substrate protein remaining % ≤ 50%)	A (A represents 0% ≤ substrate protein remaining % ≤ 50%)	–	–	–	–
O=C1CCC(N2Cc3cc(CN4C5CCC4CN(C(c4ccccc4)c4ccccc4)C5)ccc3C2=O)C(=O)N1 (stereo not drawn) [GT-03837, 3-(5-((3-benzhydryl-3,8-diazabicyclo[3.2.1]octan-8-yl)methyl)-1-oxoisoindolin-2-yl)piperidine-2,6-dione]	–	10 to 50 nM	–	–	< 500 nM	A (A represents 0% ≤ substrate protein remaining % ≤ 50%)	500 to 1000 nM	B (B represents substrate protein remaining % > 50%)	A (A represents 0% ≤ substrate protein remaining % ≤ 50%)	–	–	–	–
O=C1CCC(N2Cc3cc(CN4C5CCC4CN(C(c4ccccc4)c4ccccc4)C5)c(F)cc3C2=O)C(=O)N1 (stereo not drawn) [GT-03839, 3-(5-((3-benzhydryl-3,8-diazabicyclo[3.2.1]octan-8-yl)methyl)-6-fluoro-1-oxoisoindolin-2-yl)piperidine-2,6-dione]	10 to 50 nM	10 to 50 nM	50 to 100 nM	10 to 50 nM	1000 to 1900 nM	A (A represents 0% ≤ substrate protein remaining % ≤ 50%)	10 to 50 nM	B (B represents substrate protein remaining % > 50%)	A (A represents 0% ≤ substrate protein remaining % ≤ 50%)	10 to 50 nM	500 to 1000 nM	–	–
O=C1CCC(N2Cc3cc(CN4CCN(C(c5ccccc5)c5cccnc5)CC4)c(F)cc3C2=O)C(=O)N1 (stereo not drawn) [GT-04251, 3-(6-fluoro-1-oxo-5-((4-(phenyl(pyridin-3-yl)methyl)piperazin-1-yl)methyl)isoindolin-2-yl)piperidine-2,6-dione]	10 to 50 nM	10 to 50 nM	100 to 500 nM	–	< 500 nM	A (A represents 0% ≤ substrate protein remaining % ≤ 50%)	–	A (A represents 0% ≤ substrate protein remaining % ≤ 50%)	A (A represents 0% ≤ substrate protein remaining % ≤ 50%)	10 to 50 nM	100 to 500 nM	50 to 100 nM	100 to 500 nM
O=C1CCC(N2Cc3cc(CN4CCN([C@H](c5ccccc5)c5ccccn5)CC4)ccc3C2=O)C(=O)N1 (stereo partly drawn) [GT-04523, 3-(1-oxo-5-((4-((R)-phenyl(pyridin-2-yl)methyl)piperazin-1-yl)methyl)isoindolin-2-yl)piperidine-2,6-dione]	–	1 to 10 nM	50 to 100 nM	–	500 to 1000 nM	A (A represents 0% ≤ substrate protein remaining % ≤ 50%)	1 to 10 nM	A (A represents 0% ≤ substrate protein remaining % ≤ 50%)	A (A represents 0% ≤ substrate protein remaining % ≤ 50%)	1 to 10 nM	10 to 50 nM	50 to 100 nM	500 to 1000 nM
O=C1CCC(N2Cc3cc(CN4CCN([C@@H](c5ccccc5)c5ccccn5)CC4)ccc3C2=O)C(=O)N1 (stereo partly drawn) [GT-04524, 3-(1-oxo-5-((4-((S)-phenyl(pyridin-2-yl)methyl)piperazin-1-yl)methyl)isoindolin-2-yl)piperidine-2,6-dione]	–	10 to 50 nM	500 to 1000 nM	–	500 to 1000 nM	A (A represents 0% ≤ substrate protein remaining % ≤ 50%)	10 to 50 nM	A (A represents 0% ≤ substrate protein remaining % ≤ 50%)	A (A represents 0% ≤ substrate protein remaining % ≤ 50%)	10 to 50 nM	100 to 500 nM	10 to 50 nM	–
